Source: patent US6951869B2, “Use of leukotriene receptor antagonist for treatment of scarring” (priority 2002, dated 2005)

Tests used:
[1] = 20 mg twice daily accepted dosage, adults and children ages 12 and up; cited from earlier work
capsular contracture = assay: Treatment of capsular contracture after breast implantation in patients (case reports, Bakers Class); assay type: in vivo, human
Experimental: The breasts remained soft until 4 years and 2 months following the operation. The left breast then developed Bakers Class III capsular contracture, but the right breast remained soft. Patient was then placed on ACCOLATE® 20 mg, twice daily. One month following the prescription of ACCOLATE®, the left breast was softer (Bakers Class II) and three months later, it was even softer (Bakers Class I). Four months following ACCOLATE® therapy, both breasts were soft again (Bakers Class I). […] Two weeks following the operation, patient developed bilateral Bakers Class III capsular contractures. […] Three months following the ACCOLATE® therapy, both breasts had achieved Bakers Class I status and at 8 months post-ACCOLATE® therapy, both breasts remained soft and at Bakers Class I level. […] Twenty days following the second operation, patient noted an increasing firmness of both breasts and breast massage and vitamin E therapy was continued. However, four months following the second operation, patient developed a severe capsular contracture in the left breast (Bakers Class IV). The right breast, however, remained soft (Bakers Class I). Patient was placed on ACCOLATE® at 20 mg twice daily. […] person was diagnosed with infiltrating ductal carcinoma in the left breast in June of 2000. Patient underwent a modified radical mastectomy with immediate reconstruction with placement of a tissue expander. […] Postoperatively, patient received chemotherapy (ADRIAMYCIN®, Cyclophosphamide, TAXOL®) and was placed on a study protocol for HERCEPTIN®. In February of 2001, patient underwent exchange of the tissue expander for a […] textured saline implant which was placed submuscularly. Six weeks following the implant placement, patient received local radiation therapy to the left breast of which they received a total of 5000 rads. Immediately following the radiation therapy, patient noted redness and blistering of the skin surrounding the left breast. Three weeks post-radiation therapy, patient noted hardening of the left breast mound, which quickly progressed to a Bakers Class IV capsular contracture by the fifth week following radiation therapy. […] Patient was then placed on ACCOLATE® therapy at 20 mg twice a day. […] Additionally, patient noted a significant improvement in the mastectomy scar which had been extremely hard and firm prior to the ACCOLATE® therapy. […] person underwent augmentation mammoplasty in 1986. 250 cc silicon implants were placed on each side above the muscle. Postoperatively the subject had no complications. The breasts remained soft for 5 years. In 1991, subject noted increasing firmness in both breasts. Subject received no treatment at that time. 17 years after surgery, subject was presented for possible surgical intervention. Upon examination, subject was noted to have Bakers Class IV capsular contractures bilaterally and was placed on Zafirlukast (Accolate®) 20 mg two times daily. […] Three months post Zafirlukast (Accolate®) therapy, subject went progressed a Bakers Class IV to a Bakers Class III on the right and a Bakers Class II on the left.

mastectomy scar = assay: Effect on mastectomy scar in a patient (case report); assay type: in vivo, human; settings: Example IV patient, scar extremely hard and firm before therapy; 20 mg twice a day
Text: Person was diagnosed with infiltrating ductal carcinoma in the left breast in June of 2000. Patient underwent a modified radical mastectomy with immediate reconstruction with placement of a tissue expander. […] Postoperatively, patient received chemotherapy (ADRIAMYCIN®, Cyclophosphamide, TAXOL®) and was placed on a study protocol for HERCEPTIN®. In February of 2001, patient underwent exchange of the tissue expander for a […] textured saline implant which was placed submuscularly. Six weeks following the implant placement, patient received local radiation therapy to the left breast of which they received a total of 5000 rads. Immediately following the radiation therapy, patient noted redness and blistering of the skin surrounding the left breast. Three weeks post-radiation therapy, patient noted hardening of the left breast mound, which quickly progressed to a Bakers Class IV capsular contracture by the fifth week following radiation therapy. […] Patient was then placed on ACCOLATE® therapy at 20 mg twice a day. […] Additionally, patient noted a significant improvement in the mastectomy scar which had been extremely hard and firm prior to the ACCOLATE® therapy.

[2] = Example IV patient, 20 mg twice a day, after one month

| Compound | Reported side effect: headaches [1] | Reported side effect: nausea [1] | Softness of breast implant (capsular contracture; Example IV patient, post-radiation Bakers Class IV before therapy, 20 mg twice a day, two weeks) | Bakers Class of capsular contracture, left breast implant (capsular contracture; [2]) | Pain and distortion (capsular contracture; [2]) | Softness of both breasts (capsular contracture; Example V patient, bilateral Bakers Class IV before therapy, 20 mg two times daily, 3 weeks) | Mastectomy scar appearance and hardness (mastectomy scar) | Relief of capsular contracture (capsular contracture; Example IV patient, Bakers Class IV, given with breast massage, before ACCOLATE therapy) |
| --- | --- | --- | --- | --- | --- | --- | --- | --- |
| COc1cc(C(=O)NS(=O)(=O)c2ccccc2C)ccc1Cc1cn(C)c2ccc(NC(=O)OC3CCCC3)cc12 [ACCOLATE®] | 12.9% | 3.1% | noticeable softening | approaching a Bakers Class I softness | completely gone | some improvement | both softer and less noticeable | – |
| vitamin E | – | – | – | – | – | – | – | without relief |
